The NIST ThermoML archive (doi:10.1021/je100757w)
± gives the expanded uncertainty stated by the source.

Legend:
[1] = for surface tension liquid-gas: Ring tensiometer; for mass density: 101.3 kPa, Liquid
[2] = xn = mol fraction of the nth substance listed; details: x2 = 0; for surface tension liquid-gas: Ring tensiometer; for mass density: 101.3 kPa, Liquid

surface tension liquid-gas ([1]; 298.15 K) [mN/m]	mass density ([1]; 298.15 K) [kg/m3]	surface tension liquid-gas ([1]; 308.15 K) [mN/m]	mass density ([1]; 308.15 K) [kg/m3]	surface tension liquid-gas ([1]; 318.15 K) [mN/m]	mass density ([1]; 318.15 K) [kg/m3]	surface tension liquid-gas ([2]; 298.15 K) [mN/m]	surface tension liquid-gas ([2]; 308.15 K) [mN/m]	mass density ([2]; 308.15 K) [kg/m3]	surface tension liquid-gas ([2]; 318.15 K) [mN/m]	SMILES
33.74 ± 0.69	1007.26 ± 2.1	32.45 ± 0.67	997.98 ± 2.1	31.71 ± 0.65	988.72 ± 2.1	–	–	–	–	COCCOCCOCCOCCOC [2,5,8,11,14-pentaoxapentadecane]
27.56 ± 0.48	981.23 ± 1.1	28.48 ± 0.5	971.71 ± 1.1	27.83 ± 0.49	962.19 ± 1.1	–	–	–	–	COCCOCCOCCOC [2,5,8,11-tetraoxadodecane]
24.56 ± 0.41	940.01 ± 0.83	27.65 ± 0.45	930.03 ± 0.86	23.44 ± 0.4	919.99 ± 0.88	–	–	–	–	COCCOCCOC [2,5,8-trioxanonane]
–	–	–	–	–	–	71.37 ± 1	70.08 ± 1	994.06 ± 0.27	69.11 ± 1	O [water] + COCCOCCOC
–	–	–	–	–	–	71.37 ± 1	70.08 ± 1	994.06 ± 0.27	69.11 ± 1	O [water] + COCCOCCOCCOC
–	–	–	–	–	–	71.37 ± 1	70.08 ± 1	994.06 ± 0.27	69.11 ± 1	O [water] + COCCOCCOCCOCCOC
